Source: patent US20240109905A1, “4-ALKOXY-6-OXO-PYRIDAZINE DERIVATIVES MODULATING NLRP3” (JANSSEN PHARMACEUTICA NV, priority 2021, published 2024)

Columns and labels:
IL-1β = test: PBMC assay: IL-1β release after LPS stimulation; type: cell-based; settings: PBMC; human PBMCs, 30 min compound, 100 ng/ml LPS for 6 hrs, MSD; read-out: IL1β AC50
How it was run: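 Thawed PBMCs from healthy donors (7.5×10^4 cells/well) were preincubated with serially diluted compound for 30 min at 37 °C, then stimulated with 100 ng/ml LPS (final) for 6 h. IL-1β in the supernatant was measured by MSD immunoassay, and AC50 values were derived from the concentration-response data.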

TNF = test: PBMC assay: TNF cytokine level after LPS stimulation; type: cell-based; settings: PBMC; human PBMCs, 30 min compound, 100 ng/ml LPS for 6 hrs, MSD
How it was run: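 Thawed human PBMCs from healthy donors (7.5×10^4 per well, RPMI + 10% FBS) preincubated 30 min at 37° C with 1:3 serially diluted compounds, then stimulated 6 h with 100 ng/ml LPS (final). Supernatant TNF measured by MSD immunoassay; EC50/AC50 derived.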

COC(=O)C12CCC(NC(=O)Cn3nc(C(C)C)c(OCC(C)C)cc3=O)(CC1)C2 [Compound 38]
AC50 (IL-1β): 0.02 µM | AC50 (TNF): 12.2 µM

CC(C)COc1cc(=O)n(CC(=O)Nc2ccc3nccn3n2)nc1C(C)C [Compound 49]
AC50 (IL-1β): 0.09 µM | AC50 (TNF): > 20 µM

CC(C)c1nn(CC(=O)Nc2ccc3nncn3c2)c(=O)cc1OCC(C)(F)F [Compound 8F]
AC50 (IL-1β): 0.19 µM | AC50 (TNF): > 10 µM

CC(C)COc1cc(=O)n(CC(=O)NC23CC(C(C)(C)O)(C2)C3)nc1C(C)C [Compound 85, N-(3-(2-hydroxypropan-2-yl)bicyclo[1.1.1]pentan-1-yl)-2-(4-isobutoxy-3-isopropyl-6-oxopyridazin-1(6H)-yl)acetamide]
AC50 (IL-1β): 0.65 µM | AC50 (TNF): > 20 µM

CC(C)COc1cc(=O)n(CC(=O)NC23CCC(N)(C2)C3)nc1C(C)C [Compound 86]
AC50 (IL-1β): 0.66 µM | AC50 (TNF): > 20 µM

CC(C)COc1cc(=O)n(CC(=O)NC23CCC(C(=O)O)(CC2)CC3)nc1C(C)C [Compound 67]
AC50 (IL-1β): 0.24 µM | AC50 (TNF): > 20 µM

CC(C)COc1cc(=O)n(CC(=O)Nc2ccncc2)nc1C(C)C [Compound 47]
AC50 (IL-1β): 0.08 µM | AC50 (TNF): > 20 µM

CC(C)COc1cc(=O)n(CC(=O)NC23CC(C(F)F)(C2)C3)nc1C(C)C [Compound 83]
AC50 (IL-1β): 0.51 µM | AC50 (TNF): > 20 µM

Cc1ccc2nc(NC(=O)Cn3nc(C(C)C)c(OCC(C)C)cc3=O)n(C)c2c1 [Compound 145]
AC50 (IL-1β): > 20 µM | AC50 (TNF): > 20 µM

CC(C)COc1cc(=O)n(CC(=O)Nc2nc3ccccc3o2)nc1C(C)C [Compound 128]
AC50 (IL-1β): 4.28 µM | AC50 (TNF): > 20 µM

CC(C)COc1cc(=O)n(CC(=O)Nc2ccc3nncn3n2)nc1N(C)C [Compound 58]
AC50 (IL-1β): 0.15 µM | AC50 (TNF): > 10 µM

CC(C)c1nn(CC(=O)Nc2ccc3nncn3c2)c(=O)c(Cl)c1OCCC(F)(F)F [Compound 138]
AC50 (IL-1β): 10.7 µM | AC50 (TNF): > 20 µM

CC(C)c1nn(CC(=O)Nc2ccc3nncn3c2)c(=O)c(Cl)c1OCC(C)(F)F [Compound 93]
AC50 (IL-1β): 0.77 µM | AC50 (TNF): 8.92 µM

CC(C)COc1cc(=O)n(CC(=O)Nc2nc3cc(F)ccc3n2C)nc1C(C)C [Compound 149]
AC50 (IL-1β): > 20 µM | AC50 (TNF): > 20 µM

CC(C)c1nn(CC(=O)Nc2ccc3nncn3c2)c(=O)cc1OCC(C)(C)F [Compound 11F]
AC50 (IL-1β): 0.32 µM | AC50 (TNF): > 10 µM

CC(C)COc1cc(=O)n(CC(=O)NC23CCC(C(=O)O)(CC2)C3)nc1C(C)C [Compound 104]
AC50 (IL-1β): 1.12 µM | AC50 (TNF): > 20 µM

CCOc1cc(=O)n(CC(=O)Nc2ccc3nncn3n2)nc1C1CC1 [Compound 31C]
AC50 (IL-1β): 0.92 µM | AC50 (TNF): > 10 µM

CC(C)COc1cc(=O)n(CC(=O)NC23CC(C(=O)O)(C2)C3)nc1C(C)C [Compound 131, 3-(2-(4-isobutoxy-3-isopropyl-6-oxopyridazin-1(6H)-yl)acetamido)bicyclo[1.1.1]pentane-1-carboxylic acid]
AC50 (IL-1β): 9.63 µM | AC50 (TNF): > 20 µM

CC(C)COc1cc(=O)n(CC(=O)NC23CCC(N)(CC2)C3)nc1C(C)C [Compound 75, N-((1r,4r)-4-aminobicyclo[2.2.1]heptan-1-yl)-2-(4-isobutoxy-3-isopropyl-6-oxopyridazin-1(6H)-yl)acetamide]
AC50 (IL-1β): 0.36 µM | AC50 (TNF): > 20 µM

COCC12CC(NC(=O)Cn3nc(C(C)C)c(OCC(C)C)cc3=O)(C1)C2 [Compound 111]
AC50 (IL-1β): 1.47 µM | AC50 (TNF): > 20 µM

CC(C)c1nn(CC(=O)Nc2ccc3nncn3c2)c(=O)cc1OCC1CC(F)(F)C1 [Compound 19F]
AC50 (IL-1β): 5.33 µM | AC50 (TNF): > 10 µM

CC(C)COc1cc(=O)n(CC(=O)NC23CC(C2)C3)nc1C(C)C [Compound 110]
AC50 (IL-1β): 1.44 µM | AC50 (TNF): > 20 µM

CC(C)COc1cc(=O)n(CC(=O)NC23CC(N4CCOCC4)(C2)C3)nc1C(C)C [Compound 94]
AC50 (IL-1β): 0.78 µM | AC50 (TNF): > 20 µM

CC(C)c1nn(CC(=O)Nc2ccc3nncn3c2)c(=O)cc1OCCN(C)C [Compound 12F]
AC50 (IL-1β): > 15 µM | AC50 (TNF): > 10 µM

CC(C)COc1cc(=O)n(CC(=O)NC23CC(S(C)(=O)=O)(C2)C3)nc1C(C)C [Compound 101]
AC50 (IL-1β): 1.02 µM | AC50 (TNF): > 20 µM

CC(C)COc1cc(=O)n(CC(=O)NC23CCC(O)(CC2)CC3)nc1C(C)C [Compound 88]
AC50 (IL-1β): 0.66 µM | AC50 (TNF): > 20 µM

CC(C)COc1c(C(C)C)nn(CC(=O)Nc2ccc3nncn3n2)c(=O)c1C(C)O (centres unmarked) [Compound 127]
AC50 (IL-1β): 3.88 µM | AC50 (TNF): 19.4 µM

CCN1CC[C@]12C[C@H](NC(=O)Cn1nc(C(C)C)c(OCC(C)C)cc1=O)C2 [Compound 81, N-((4s,6r)-1-ethyl-1-azaspiro[3.3]heptan-6-yl)-2-(4-isobutoxy-3-isopropyl-6-oxopyridazin-1(6H)-yl)acetamide]
AC50 (IL-1β): 0.48 µM | AC50 (TNF): > 20 µM
